Values quoted from earlier work in US20030194514A1 (priority 2002, published 2003).

Key:
[1] = diluent level of 15%; cited from earlier work
[2] = per Brit. 1,132,417; cited from earlier work
[3] = especially at a dilution level of 20-30%; cited from earlier work

Compound | Judgement as stabilizer for propargyl bromide by impact tests [1] | Effectiveness of the solvent in stabilizing propargyl bromide [2] | Judgement as stabilizer in confinement tests [3]
c1ccccc1 [benzene] | poor stabilizers |  | 
ClC(Cl)Cl [chloroform] | poor stabilizers | ineffective | 
CCOCC [diethyl ether] | appeared promising |  | 
CC(C)OC(C)C [diisopropyl ether] | appeared promising |  | 
C1COCCO1 [dioxane] |  | effective | 
CCO [ethanol] |  | effective | 
NC=O [formamide] | poor stabilizers | ineffective | 
CCCCCC [hexane] | poor stabilizers | ineffective | 
C1CCOC1 [tetrahydrofuran] |  | effective | 
Cc1ccccc1 [toluene] |  |  | material of choice
xylene |  | effective | 
